From patent US20260262643A1, “HERBICIDAL BENZOXAZINES” (FMC CORPORATION, priority 2022, published 2026)

What was measured:
corn [1] = assay: Test C preemergence; type: in vivo, Zea mays; conditions: preemergence, 0 to 100 scale (0 no effect, 100 complete control)
Method in brief: (§1)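 Seeds sown in loam soil–sand blend received a directed preemergence soil spray of test chemical in non-phytotoxic solvent with surfactant; postemergence plants (2–10 cm, one- to two-leaf stage) were sprayed with the same formulation. Greenhouse-held 10 days, then visually rated for injury versus untreated controls, 0 (no effect) to 100 (complete control).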

pigweed, palmer [2] = assay: Test C preemergence; type: in vivo, Amaranthus palmeri; conditions: preemergence, 0 to 100 scale (0 no effect, 100 complete control)
Method in brief: as §1

oat, wild [3] = assay: Test C postemergence; type: in vivo, Avena fatua; conditions: 10 days, 0 to 100 scale (0 no effect, 100 complete control)
Method in brief: as §1

soybean [4] = assay: Test C preemergence; type: in vivo, Glycine max; conditions: preemergence, 0 to 100 scale (0 no effect, 100 complete control)
Method in brief: as §1

sedge, umbrella = assay: Test D flooded paddy test; type: in vivo, Cyperus difformis; conditions: 250 g ai/ha, applied to paddy water, visual rating after 13 to 14 days, scale 0 to 100 (0 no effect, 100 complete control)
Method in brief: (§2)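 Visual ratings from 0, meaning no effect, to 100, meaning complete control, were assigned against untreated controls 13 to 14 days after compounds were added to the floodwater of pots kept 3 cm deep, with plants at the 2-leaf stage.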

blackgrass [5] = assay: Test C preemergence; type: in vivo, Alopecurus myosuroides; conditions: preemergence, 0 to 100 scale (0 no effect, 100 complete control)
Method in brief: as §1

pigweed, palmer [6] = assay: Test C postemergence; type: in vivo, Amaranthus palmeri; conditions: 10 days, 0 to 100 scale (0 no effect, 100 complete control)
Method in brief: as §1

ragweed [7] = assay: Test C preemergence; type: in vivo, Ambrosia artemisiifolia; conditions: preemergence, 0 to 100 scale (0 no effect, 100 complete control)
Method in brief: as §1

oat, wild [8] = assay: Test C preemergence; type: in vivo, Avena fatua; conditions: preemergence, 0 to 100 scale (0 no effect, 100 complete control)
Method in brief: as §1

ryegrass, Italian [9] = assay: Test C preemergence; type: in vivo, Lolium multiflorum; conditions: preemergence, 0 to 100 scale (0 no effect, 100 complete control)
Method in brief: as §1

blackgrass [10] = assay: Test C postemergence; type: in vivo, Alopecurus myosuroides; conditions: 10 days, 0 to 100 scale (0 no effect, 100 complete control)
Method in brief: as §1

wheat [11] = assay: Test C postemergence; type: in vivo, Triticum aestivum; conditions: 10 days, 0 to 100 scale (0 no effect, 100 complete control)
Method in brief: as §1

kochia [12] = assay: Test C postemergence; type: in vivo, Bassia scoparia; conditions: 10 days, 0 to 100 scale (0 no effect, 100 complete control)
Method in brief: as §1

wheat [13] = assay: Test C preemergence; type: in vivo, Triticum aestivum; conditions: preemergence, 0 to 100 scale (0 no effect, 100 complete control)
Method in brief: as §1

ducksalad = assay: Test D flooded paddy test; type: in vivo, Heteranthera limosa; conditions: 250 g ai/ha, applied to paddy water, visual rating after 13 to 14 days, scale 0 to 100 (0 no effect, 100 complete control)
Method in brief: as §2

soybean [14] = assay: Test C postemergence; type: in vivo, Glycine max; conditions: 10 days, 0 to 100 scale (0 no effect, 100 complete control)
Method in brief: as §1

rice = assay: Test D flooded paddy test; type: in vivo, Oryza sativa; conditions: 250 g ai/ha, applied to paddy water, visual rating after 13 to 14 days, scale 0 to 100 (0 no effect, 100 complete control)
Method in brief: as §2

ragweed [15] = assay: Test C postemergence; type: in vivo, Ambrosia artemisiifolia; conditions: 10 days, 0 to 100 scale (0 no effect, 100 complete control)
Method in brief: as §1

barnyardgrass [16] = assay: Test C preemergence; type: in vivo, Echinochloa crusgalli; conditions: preemergence, 0 to 100 scale (0 no effect, 100 complete control)
Method in brief: as §1

galium = assay: Test C postemergence; type: in vivo, Galium aparine; conditions: 10 days, 0 to 100 scale (0 no effect, 100 complete control)
Method in brief: as §1

horseweed = assay: Test C postemergence; type: in vivo, Erigeron canadensis; conditions: 10 days, 0 to 100 scale (0 no effect, 100 complete control)
Method in brief: as §1

green foxtail [17] = assay: Test C postemergence; type: in vivo, Setaria viridis; conditions: 10 days, 0 to 100 scale (0 no effect, 100 complete control)
Method in brief: as §1

corn [18] = assay: Test C postemergence; type: in vivo, Zea mays; conditions: 10 days, 0 to 100 scale (0 no effect, 100 complete control)
Method in brief: as §1

barnyardgrass [19] = assay: Test D flooded paddy test; type: in vivo, Echinochloa crus-galli; conditions: 250 g ai/ha, applied to paddy water, visual rating after 13 to 14 days, scale 0 to 100 (0 no effect, 100 complete control)
Method in brief: as §2

ryegrass, Italian [20] = assay: Test C postemergence; type: in vivo, Lolium multiflorum; conditions: 10 days, 0 to 100 scale (0 no effect, 100 complete control)
Method in brief: as §1

kochia [21] = assay: Test C preemergence; type: in vivo, Bassia scoparia; conditions: preemergence, 0 to 100 scale (0 no effect, 100 complete control)
Method in brief: as §1

barnyardgrass [22] = assay: Test C postemergence; type: in vivo, Echinochloa crusgalli; conditions: 10 days, 0 to 100 scale (0 no effect, 100 complete control)
Method in brief: as §1

green foxtail [23] = assay: Test C preemergence; type: in vivo, Setaria viridis; conditions: preemergence, 0 to 100 scale (0 no effect, 100 complete control)
Method in brief: as §1

With CC(C)Oc1ncn(-c2cccc(C(=O)N3C[C@H](C)Oc4c(Cl)cccc43)c2)n1 [Compound 312] the “Corn plant response rating” value (corn [1]; 500 g ai/ha) was 10, the “Corn plant response rating” value (corn [1]; Test C, 125 g ai/ha) was 0 and the “Pigweed, Palmer plant response rating” value (pigweed, palmer [2]; 500 g ai/ha) was 70. For the same molecule, the “Pigweed, Palmer plant response rating” value (pigweed, palmer [2]; Test C, 125 g ai/ha) was 20, the “Plant response rating, Oat, Wild” value (oat, wild [3]; 500 g ai/ha, postemergence) was 0 and the “Plant response rating, Oat, Wild” value (oat, wild [3]; Postemergence, 125 g ai/ha) was 0. For the same molecule, the “Soybean plant response rating” value (soybean [4]; 500 g ai/ha) was 10, the “Soybean plant response rating” value (soybean [4]; Test C, 125 g ai/ha) was 0 and the “Plant response rating, Sedge, Umbrella (Flood)” value (sedge, umbrella) was 0. For the same molecule, the “Blackgrass plant response rating” value (blackgrass [5]; 500 g ai/ha) was 80, the “Blackgrass plant response rating” value (blackgrass [5]; Test C, 125 g ai/ha) was 50 and the “Plant response rating, Pigweed, Palmer” value (pigweed, palmer [6]; 500 g ai/ha, postemergence) was 50. For the same molecule, the “Plant response rating, Pigweed, Palmer” value (pigweed, palmer [6]; Postemergence, 125 g ai/ha) was 10, the “Ragweed plant response rating” value (ragweed [7]; 500 g ai/ha) was 0 and the “Ragweed plant response rating” value (ragweed [7]; Test C, 125 g ai/ha) was 0. The “Oat, Wild plant response rating” value (oat, wild [8]; 500 g ai/ha) was 70, the “Oat, Wild plant response rating” value (oat, wild [8]; Test C, 125 g ai/ha) was 0 and the “Ryegrass, Italian plant response rating” value (ryegrass, Italian [9]; 500 g ai/ha) was 80. The “Ryegrass, Italian plant response rating” value (ryegrass, Italian [9]; Test C, 125 g ai/ha) was 70, the “Plant response rating, Blackgrass” value (blackgrass [10]; 500 g ai/ha, postemergence) was 40 and the “Plant response rating, Blackgrass” value (blackgrass [10]; Postemergence, 125 g ai/ha) was 0. The “Plant response rating, Wheat” value (wheat [11]; 500 g ai/ha, postemergence) was 10, the “Plant response rating, Wheat” value (wheat [11]; Postemergence, 125 g ai/ha) was 10 and the “Plant response rating, Kochia” value (kochia [12]; 500 g ai/ha, postemergence) was 80. The “Plant response rating, Kochia” value (kochia [12]; Postemergence, 125 g ai/ha) was 20, the “Wheat plant response rating” value (wheat [13]; 500 g ai/ha) was 10 and the “Wheat plant response rating” value (wheat [13]; Test C, 125 g ai/ha) was 0. The “Plant response rating, Ducksalad (Flood)” value (ducksalad) was 0, the “Plant response rating, Soybean” value (soybean [14]; 500 g ai/ha, postemergence) was 100 and the “Plant response rating, Soybean” value (soybean [14]; Postemergence, 125 g ai/ha) was 80. For the same molecule, the “Plant response rating, Rice (Flood)” value (rice) was 0, the “Plant response rating, Ragweed” value (ragweed [15]; 500 g ai/ha, postemergence) was 40 and the “Plant response rating, Ragweed” value (ragweed [15]; Postemergence, 125 g ai/ha) was 0. The “Barnyardgrass plant response rating” value (barnyardgrass [16]; 500 g ai/ha) was 40, the “Barnyardgrass plant response rating” value (barnyardgrass [16]; Test C, 125 g ai/ha) was 0 and the “Plant response rating, Galium” value (galium; 500 g ai/ha, postemergence) was 80. The “Plant response rating, Galium” value (galium; Postemergence, 125 g ai/ha) was 60, the “Plant response rating, Horseweed” value (horseweed; 500 g ai/ha, postemergence) was 0 and the “Plant response rating, Horseweed” value (horseweed; Postemergence, 125 g ai/ha) was 0. The “Plant response rating, Foxtail, Green” value (green foxtail [17]; 500 g ai/ha, postemergence) was 20, the “Plant response rating, Foxtail, Green” value (green foxtail [17]; Postemergence, 125 g ai/ha) was 0 and the “Plant response rating, Corn” value (corn [18]; 500 g ai/ha, postemergence) was 10. For the same molecule, the “Plant response rating, Corn” value (corn [18]; Postemergence, 125 g ai/ha) was 10, the “Plant response rating, Barnyardgrass (Flood)” value (barnyardgrass [19]) was 0 and the “Plant response rating, Ryegrass, Italian” value (ryegrass, Italian [20]; 500 g ai/ha, postemergence) was 30. For the same molecule, the “Plant response rating, Ryegrass, Italian” value (ryegrass, Italian [20]; Postemergence, 125 g ai/ha) was 30, the “Kochia plant response rating” value (kochia [21]; 500 g ai/ha) was 20 and the “Kochia plant response rating” value (kochia [21]; Test C, 125 g ai/ha) was 0. The “Plant response rating, Barnyardgrass” value (barnyardgrass [22]; 500 g ai/ha, postemergence) was 10, the “Plant response rating, Barnyardgrass” value (barnyardgrass [22]; Postemergence, 125 g ai/ha) was 10 and the “Foxtail, Green plant response rating” value (green foxtail [23]; 500 g ai/ha) was 90. For the same molecule, the “Foxtail, Green plant response rating” value (green foxtail [23]; Test C, 125 g ai/ha) was 80.
